Measurements from patent US20240148707A1, “MODULATION OF DRUG-DRUG INTERACTIONS OF VADADUSTAT” (Akebia Therapeutics, Inc., priority 2021, published 2024).
Read-outs that look alike come from different tables or passages of the source.

How the values were obtained:
[1] = Phase I drug-drug interaction study with sevelamer carbonate; format: in vivo, human; settings: for clearance: read-out: Clearance (ClB) (converted); for Vd: read-out: Volume of distribution (Vc); for Tmax: median (minimum, maximum)
Method: A phase I, open-label, fixed-sequence study was conducted in healthy adult subjects to assess the effect of sevelamer carbonate as phosphate binders on the pharmacokinetics of a single dose of vadadustat.
Pharmacokinetics. A predose PK blood sample was collected on Day 1. After each dose of vadadustat administered (Days 1, 3, 5, and 7), blood samples for PK analysis were collected at the following time points: predose and 0.5, 1, 1.5, 2, 3, 4, 6, 9, 12, 16, 24, and 48 hours after each dose of vadadustat. The 48-hour postdose sample was collected before vadadustat administration on Days 3, 5, and 7. The following parameters were calculated and analyzed: AUC0-∞, AUC0-last, Cmax, Tmax, Kel, CIB, Vc/F, and t1/2.
Subjects were dosed approximately at the same designated time on each dosing day, where applicable. Study drugs were administered with approximately 8 ounces (240 mL) of water at room temperature in a seated position. Subjects were instructed to drink the full 8 ounces of water, and not to chew or break the tablets/gelcaps.
A single oral dose of vadadustat 300 mg (2×150 mg tablets) was administered on Days 1, 3, 5, and 7. Phosphate binder that is sevelamer carbonate (1600 mg, 2×800 mg tablets) was administered on Days 3, 5, and 7.
The 9-day treatment period was conducted as follows: • Day 1: vadadustat administered immediately after consuming breakfast. • Day 2: wash-out (no investigational product administration). • Day 3: vadadustat administered concomitantly with the requisite phosphate binder immediately after consuming breakfast. • Day 4: wash-out (no investigational product administration). • Day 5: vadadustat administered in fasted condition and the phosphate binder administered 1 hour later (breakfast must be served within 2 minutes after phosphate binder administration and consumed immediately after it is served). • Day 6: wash-out (no investigational product administration). • Day 7: phosphate binder administered immediately after consuming breakfast; vadadustat administered 2 hours after the phosphate binder was administered. • Day 8: wash-out (no investigational product administration). • Day 9: subjects discharged from the Clinical Research Unit (CRU) after the 48-hour postdose PK blood sample has been collected.

[2] = Phase I drug-drug interaction study with cyclosporine (Part 1, Arm 1); format: in vivo, human; settings: for AUC(0-inf) / AUC(0-t) / Cmax: both sexes, human, plasma, fasted
Method: A phase I, open-label, 2-part study was conducted in healthy male and female subjects to evaluate the potential for interaction of cyclosporine (Part 1, Arm 1), probenecid (Part 1, Arm 2), and rifampin (Part 2) with vadadustat.
Subjects were randomized in a 1:1 ratio to 1 of 2 dosing sequences (A:B or B:A) to receive vadadustat 300 mg alone and vadadustat 300 mg in combination with oral cyclosporine 500 mg in a crossover design. Study drugs were administered in the morning after at least a 10-hour overnight fast. Subjects remained fasted for at least 4 hours post-dose. • Treatment A: a single oral dose of vadadustat (300 mg) administered as 2×150 mg tablets. • Treatment B: a single oral dose of vadadustat (300 mg) administered as 2×150 mg tablets co-administered with a single oral dose of cyclosporine (500 mg) administered as 5×100 mg capsules.
On the morning of Day 1, subjects received the first treatment (A or B). Following a 7-day washout, subjects crossed over to Period 2 to receive the second treatment of the dosing sequence (A or B) on Day 8.
On each dosing day (Day 1 and Day 8) blood samples for PK analysis were collected up to 48 hours post-dose. Subjects were discharged from the clinical research unit (CRU) on the morning of Day 10, after the final 48-hour post-dose PK sample had been collected. A follow-up phone call was conducted 30 days±2 days after the final dose.

[3] = concomitant administration of phosphate binder vs vadadustat alone, ANOVA
[4] = human, plasma, oral, 300 mg, vadadustat 300 mg alone, immediately after breakfast, mean ± SD
[5] = human, plasma, oral, vadadustat 300 mg 2 hours after sevelamer carbonate 1600 mg with breakfast, mean ± SD
[6] = human, plasma, oral, vadadustat 300 mg concomitantly with sevelamer carbonate 1600 mg, immediately after breakfast, mean ± SD
[7] = human, plasma, oral, vadadustat 300 mg fasting, 1 hour prior to sevelamer carbonate 1600 mg, mean ± SD
[8] = vadadustat 300 mg alone, immediately after breakfast, mean ± SD

O=C(O)CNC(=O)c1ncc(-c2cccc(Cl)c2)cc1O [Compound 1, {[5-(3-chlorophenyl)-3-hydroxypyridine-2-carbonyl]amino}acetic acid]
reduction of vadadustat AUC0-last [1, 3]: about 37% | reduction of vadadustat AUC0-∞ [1, 3]: about 37% | reduction of vadadustat Cmax [1, 3]: about 40% | AUC(0-t) [1, 4]: 185 ± 57.3 µg·h/mL | AUC(0-inf) ([1]; human, plasma, oral, 300 mg, vadadustat 300 mg alone, immediately after breakfast, mean ± SD, read-out: AUC0-∞): 190 ± 57.2 µg·h/mL | clearance [1, 4]: 28.8 mL/min | Vd [1, 4]: 11.5 ± 2.84 L | Tmax ([1]; human, plasma, oral, 300 mg, vadadustat 300 mg alone, immediately after breakfast): 3.97 h | AUC(0-inf) ([1]; human, plasma, oral, concurrent vadadustat and sevelamer carbonate, read-out: geometric LS mean AUC0-∞): 114 µg·h/mL | AUC(0-t) [1, 5]: 151 ± 57.5 µg·h/mL | AUC(0-inf) ([1]; human, plasma, oral, vadadustat 300 mg 2 hours after sevelamer carbonate 1600 mg with breakfast, mean ± SD, read-out: AUC0-∞): 154 ± 57.8 µg·h/mL | clearance [1, 5]: 38.3 mL/min | half-life ([1]; human, plasma, oral, vadadustat 300 mg 2 hours after sevelamer carbonate 1600 mg with breakfast, mean ± SD, read-out: Elimination half-life (t1/2) (converted)): 5.1 ± 0.97 h | Vd [1, 5]: 16.4 ± 7.04 L | Tmax ([1]; human, plasma, oral, vadadustat 300 mg 2 hours after sevelamer carbonate 1600 mg with breakfast): 2.99 h | AUC(0-t) [1, 6]: 121 ± 50.4 µg·h/mL | AUC(0-inf) ([1]; human, plasma, oral, vadadustat 300 mg concomitantly with sevelamer carbonate 1600 mg, immediately after breakfast, mean ± SD, read-out: AUC0-∞): 124 ± 51 µg·h/mL | clearance [1, 6]: 48 mL/min | Cmax ([1]; human, plasma, oral, vadadustat 300 mg concomitantly with sevelamer carbonate 1600 mg, immediately after breakfast, mean ± SD, read-out: Cmax): 16600 ± 5750 ng/mL | Vd [1, 6]: 19.4 ± 10.1 L | Tmax ([1]; human, plasma, oral, vadadustat 300 mg concomitantly with sevelamer carbonate 1600 mg, immediately after breakfast): 3.49 h | AUC(0-t) [1, 7]: 152 ± 46.2 µg·h/mL | AUC(0-inf) ([1]; human, plasma, oral, vadadustat 300 mg fasting, 1 hour prior to sevelamer carbonate 1600 mg, mean ± SD, read-out: AUC0-∞): 156 ± 48.5 µg·h/mL | clearance [1, 7]: 35.7 mL/min | Cmax ([1]; human, plasma, oral, vadadustat 300 mg fasting, 1 hour prior to sevelamer carbonate 1600 mg, mean ± SD, read-out: Cmax): 31300 ± 10600 ng/mL | Vd [1, 7]: 13.6 ± 5.04 L | Tmax ([1]; human, plasma, oral, vadadustat 300 mg fasting, 1 hour prior to sevelamer carbonate 1600 mg): 1.49 h | Cmax [1, 8]: 26700 ± 6610 ng/mL | Elimination half-life (t1/2) [1, 8]: 4.81 ± 1.15 h | Elimination half-life (t1/2) ([1]; vadadustat 300 mg concomitantly with sevelamer carbonate 1600 mg, immediately after breakfast, mean ± SD): 4.70 ± 0.90 h | changes in vadadustat exposure ([1]; vadadustat administered 1 hour prior to sevelamer carbonate): within the prespecified no-effect boundaries of 80% to 125% | changes in vadadustat exposure ([1]; vadadustat administered 2 hours after sevelamer carbonate): within the prespecified no-effect boundaries of 80% to 125% | AUC(0-inf) ([2]; vadadustat 300 mg + cyclosporine 500 mg, single oral doses, read-out: AUCinf, geometric LSM, Treatment V + C): 293 µg·h/mL | AUC(0-t) ([2]; vadadustat 300 mg + cyclosporine 500 mg, single oral doses, read-out: AUClast, geometric LSM, Treatment V + C): 292 µg·h/mL | Cmax ([2]; vadadustat 300 mg + cyclosporine 500 mg, single oral doses, read-out: Cmax, geometric LSM, Treatment V + C): 37100 ng/mL | AUC(0-inf) ([2]; vadadustat 300 mg alone, single oral dose, read-out: AUCinf, geometric LSM, Treatment V): 251 µg·h/mL | AUC(0-t) ([2]; vadadustat 300 mg alone, single oral dose, read-out: AUClast, geometric LSM, Treatment V): 249 µg·h/mL | Cmax ([2]; vadadustat 300 mg alone, single oral dose, read-out: Cmax, geometric LSM, Treatment V): 45400 ng/mL | tolerability ([2]; during treatment with cyclosporine, healthy subjects): tolerated | changes in the Cmax and AUC values ([2]; vadadustat in combination with cyclosporine): no clinically relevant changes
